In PubChem BioAssay (NCI):
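1) Cells in 96-well plates. 2) Compound, 48 h, 5 concentrations. 3) Linear interpolation between surrounding doses. 4) Unreached endpoint = highest concentration. GI50 = concentration required for 50% inhibition of growth. TGI marks complete inhibition of growth.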

Columns and labels:
Assay in all cases: NCI anticancer screen, dose series, 48 h
SK-OV-3 ovarian = tested on: SK-OV-3 ovarian
NCI-H23 lung = tested on: NCI-H23 lung
A498 renal = tested on: A498 renal
CAKI-1 renal = tested on: CAKI-1 renal
UO-31 renal = tested on: UO-31 renal
OVCAR-8 ovarian = tested on: OVCAR-8 ovarian
HOP-62 NSCLC = tested on: HOP-62 NSCLC
RXF 393 renal = tested on: RXF 393 renal
SF-295 CNS = tested on: SF-295 CNS
MDA-MB-435 = tested on: MDA-MB-435
OVCAR-4 ovarian = tested on: OVCAR-4 ovarian
ACHN renal = tested on: ACHN renal
SK-MEL-28 melanoma = tested on: SK-MEL-28 melanoma
SNB-75 CNS = tested on: SNB-75 CNS
SK-MEL-5 melanoma = tested on: SK-MEL-5 melanoma
EKVX NSCLC = tested on: EKVX NSCLC
TK-10 renal = tested on: TK-10 renal
MOLT-4 leukemia = tested on: MOLT-4 leukemia
UACC-257 melanoma = tested on: UACC-257 melanoma
DU-145 prostate = tested on: DU-145 prostate
NCI-H226 lung = tested on: NCI-H226 lung
OVCAR-5 ovarian = tested on: OVCAR-5 ovarian
BT-549 breast = tested on: BT-549 breast
RPMI-8226 leukemia = tested on: RPMI-8226 leukemia
MALME-3M melanoma = tested on: MALME-3M melanoma
HS 578T breast = tested on: HS 578T breast
UACC-62 melanoma = tested on: UACC-62 melanoma
HCT-116 colon = tested on: HCT-116 colon
HCC-2998 colon = tested on: HCC-2998 colon
SF-268 CNS = tested on: SF-268 CNS
SNB-19 CNS = tested on: SNB-19 CNS
CCRF-CEM leukemia = tested on: CCRF-CEM leukemia
IGROV1 ovarian = tested on: IGROV1 ovarian
COLO 205 colon = tested on: COLO 205 colon
A549 NSCLC = tested on: A549 NSCLC
PC-3 prostate = tested on: PC-3 prostate
MDA-MB-231 breast = tested on: MDA-MB-231 breast
SK-MEL-2 melanoma = tested on: SK-MEL-2 melanoma
OVCAR-3 ovarian = tested on: OVCAR-3 ovarian
NCI-H460 lung = tested on: NCI-H460 lung
KM12 colon = tested on: KM12 colon
SF-539 CNS = tested on: SF-539 CNS
786-0 renal = tested on: 786-0 renal
SN12C renal = tested on: SN12C renal
HL-60(TB) leukemia = tested on: HL-60(TB) leukemia
M14 melanoma = tested on: M14 melanoma
HOP-92 NSCLC = tested on: HOP-92 NSCLC
U251 CNS = tested on: U251 CNS
T-47D breast = tested on: T-47D breast
MCF7 breast = tested on: MCF7 breast
LOX IMVI melanoma = tested on: LOX IMVI melanoma

`COc1ccc(C(=O)NNc2nc(Cl)nc(N3CCN(C(c4ccccc4)c4ccccc4)CC3)n2)cc1` showed a GI50 (SK-OV-3 ovarian) of 11.9 µM, a TGI (SK-OV-3 ovarian) of 25.8 µM and a GI50 (NCI-H23 lung) of 1.88 µM. The TGI (NCI-H23 lung) was 4.02 µM, the GI50 (A498 renal) was 10.4 µM and the TGI (A498 renal) was 23.2 µM. For the same molecule, the GI50 (CAKI-1 renal) was 1.84 µM, the TGI (CAKI-1 renal) was 3.48 µM and the GI50 (UO-31 renal) was 3.2 µM. It also gave a TGI (UO-31 renal) of 18.5 µM, a GI50 (OVCAR-8 ovarian) of 1.89 µM and a TGI (OVCAR-8 ovarian) of 4.36 µM. It also gave a GI50 (HOP-62 NSCLC) of 2.97 µM, a TGI (HOP-62 NSCLC) of 10.7 µM and a GI50 (RXF 393 renal) of 1.83 µM. It also gave a TGI (RXF 393 renal) of 3.84 µM, a GI50 (SF-295 CNS) of 16 µM and a TGI (SF-295 CNS) of 30.6 µM. For the same molecule, the GI50 (MDA-MB-435) was 3.58 µM, the TGI (MDA-MB-435) was 13 µM and the GI50 (OVCAR-4 ovarian) was 1.81 µM. The TGI (OVCAR-4 ovarian) was 3.56 µM, the GI50 (ACHN renal) was 1.76 µM and the TGI (ACHN renal) was 3.16 µM. The GI50 (SK-MEL-28 melanoma) was 1.84 µM, the TGI (SK-MEL-28 melanoma) was 3.76 µM and the GI50 (SNB-75 CNS) was 1.65 µM. The TGI (SNB-75 CNS) was 3.49 µM, the GI50 (SK-MEL-5 melanoma) was 16.7 µM and the TGI (SK-MEL-5 melanoma) was 31.7 µM. The GI50 (EKVX NSCLC) was 3.43 µM, the TGI (EKVX NSCLC) was 14.8 µM and the GI50 (TK-10 renal) was over 100 µM. The TGI (TK-10 renal) was over 100 µM, the GI50 (MOLT-4 leukemia) was 1.64 µM and the TGI (MOLT-4 leukemia) was 5.15 µM. For the same molecule, the GI50 (UACC-257 melanoma) was 2.84 µM, the TGI (UACC-257 melanoma) was 9.06 µM and the GI50 (DU-145 prostate) was 3.93 µM. For the same molecule, the TGI (DU-145 prostate) was 13.6 µM, the GI50 (NCI-H226 lung) was 18.9 µM and the TGI (NCI-H226 lung) was 45.1 µM. It also gave a GI50 (OVCAR-5 ovarian) of 13.2 µM, a TGI (OVCAR-5 ovarian) of 33.2 µM and a GI50 (BT-549 breast) of 1.74 µM. For the same molecule, the TGI (BT-549 breast) was 3.47 µM, the GI50 (RPMI-8226 leukemia) was 33.7 µM and the TGI (RPMI-8226 leukemia) was over 100 µM. For the same molecule, the GI50 (MALME-3M melanoma) was 1.84 µM, the TGI (MALME-3M melanoma) was 3.64 µM and the GI50 (HS 578T breast) was 1.95 µM. It also gave a TGI (HS 578T breast) of 4.76 µM, a GI50 (UACC-62 melanoma) of 1.82 µM and a TGI (UACC-62 melanoma) of 3.54 µM. The GI50 (HCT-116 colon) was 1.74 µM, the TGI (HCT-116 colon) was 3.22 µM and the GI50 (HCC-2998 colon) was 1.49 µM. It also gave a TGI (HCC-2998 colon) of 2.89 µM, a GI50 (SF-268 CNS) of 2.01 µM and a TGI (SF-268 CNS) of 4.31 µM. The GI50 (SNB-19 CNS) was 1.84 µM, the TGI (SNB-19 CNS) was 3.54 µM and the GI50 (CCRF-CEM leukemia) was 1.25 µM. The TGI (CCRF-CEM leukemia) was 4.12 µM, the GI50 (IGROV1 ovarian) was 1.67 µM and the TGI (IGROV1 ovarian) was 3.11 µM. It also gave a GI50 (COLO 205 colon) of 3.21 µM, a TGI (COLO 205 colon) of 13.4 µM and a GI50 (A549 NSCLC) of 17.9 µM. The TGI (A549 NSCLC) was 39.1 µM, the GI50 (PC-3 prostate) was 1.74 µM and the TGI (PC-3 prostate) was 3.59 µM. It also gave a GI50 (MDA-MB-231 breast) of 1.94 µM, a TGI (MDA-MB-231 breast) of 3.68 µM and a GI50 (SK-MEL-2 melanoma) of 2.14 µM. For the same molecule, the TGI (SK-MEL-2 melanoma) was 4.91 µM, the GI50 (OVCAR-3 ovarian) was 1.89 µM and the TGI (OVCAR-3 ovarian) was 3.45 µM. For the same molecule, the GI50 (NCI-H460 lung) was 3.52 µM, the TGI (NCI-H460 lung) was 11.9 µM and the GI50 (KM12 colon) was over 100 µM. For the same molecule, the TGI (KM12 colon) was over 100 µM, the GI50 (SF-539 CNS) was 1.73 µM and the TGI (SF-539 CNS) was 3.21 µM. The GI50 (786-0 renal) was 3.37 µM, the TGI (786-0 renal) was 12.9 µM and the GI50 (SN12C renal) was 1.71 µM. The TGI (SN12C renal) was 3.19 µM, the GI50 (HL-60(TB) leukemia) was 2.54 µM and the TGI (HL-60(TB) leukemia) was 10.5 µM. The GI50 (M14 melanoma) was 1.75 µM, the TGI (M14 melanoma) was 3.58 µM and the GI50 (HOP-92 NSCLC) was 1.61 µM. It also gave a TGI (HOP-92 NSCLC) of 3.55 µM, a GI50 (U251 CNS) of 1.8 µM and a TGI (U251 CNS) of 3.34 µM. The GI50 (T-47D breast) was 64 µM, the TGI (T-47D breast) was over 100 µM and the GI50 (MCF7 breast) was over 100 µM. For the same molecule, the TGI (MCF7 breast) was over 100 µM, the GI50 (LOX IMVI melanoma) was 1.63 µM and the TGI (LOX IMVI melanoma) was 3.05 µM.
